{
  "source": "paper PMC10252203",
  "about": "“Tyrosinase Inhibitory Peptides from Enzyme Hydrolyzed Royal Jelly: Production, Separation, Identification and Docking Analysis” (Foods, 2023)",
  "key": {"TYR [1]": {"biological_target": "T1, TYR (Agaricus bisporus, UniProt C7FF04)", "T1 construct": "purchased Shanghai Yuanye Bio-Technology Co., Ltd. (Shanghai, China)", "T1 sequence (C7FF04 2-392)": "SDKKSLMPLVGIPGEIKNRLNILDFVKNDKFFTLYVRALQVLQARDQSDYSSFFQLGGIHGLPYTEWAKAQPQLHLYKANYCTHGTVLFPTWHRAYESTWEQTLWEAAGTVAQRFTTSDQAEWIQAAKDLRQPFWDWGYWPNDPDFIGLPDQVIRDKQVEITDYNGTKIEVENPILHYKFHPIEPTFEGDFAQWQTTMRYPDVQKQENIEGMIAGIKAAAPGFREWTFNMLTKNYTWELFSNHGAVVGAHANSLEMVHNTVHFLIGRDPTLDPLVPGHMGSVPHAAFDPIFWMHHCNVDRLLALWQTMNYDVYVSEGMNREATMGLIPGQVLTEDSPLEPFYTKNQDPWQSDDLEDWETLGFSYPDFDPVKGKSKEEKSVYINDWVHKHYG", "set-up": "method as in 2 sources, one per row (each row's own in cited_ref): ref [48] = [48]; PMID 34313364; doi:10.1002/ardp.202100204; 48. Krobthong S. Yingchutrakul Y. Samutrtai P. Choowongkomon K. The C-terminally shortened analogs of a hexapeptide derived from Lingzhi hydrolysate with enhanced tyrosinase-inhibitory activity Arch. ||| ref [16],[17] = [16]; PMID 33459057; doi:10.1080/10408398.2021.1871724; 16. Peng Z.Y. Wang G.C. Zeng Q.H. Li Y.F. Liu H.Q. Wang J.J. Zhao Y. A systematic review of synthetic tyrosinase inhibitors and their structure-activity relationship Crit. Rev. Food Sci. Nutr. 2021 62 || [17]; PMID 35603815; doi:10.1111/1750-3841.16160; 17. Xue W. Liu X. Zhao W. Yu Z. Identification and molecular mechanism of novel tyrosinase inhibitory peptides from collagen J. Food Sci. 2022 87 2744 2756 10.1111/1750-3841.16160 35603815", "conditions": "ref [16],[17]; cited from earlier work", "excerpt": "Bioactive peptides are functional peptide fragments produced during the hydrolysis, cleavage, or maturation of proteins, and their relative molecular mass is usually less than 6000 Da."}, "TYR [2]": {"biological_target": "T1, TYR", "assay": "TYR inhibitory activity (L-DOPA oxidation)", "type": "biochemical", "protocol": "Determination and calculation methods of TYR inhibitory activity were referred to the detection method of Ji and modified slightly. Briefly, the TYR was dissolved to prepare solutions using 0.05 M phosphate buffer saline (pH 6.8). Then, the mixed 40 μL of ERJ, 2 U/mL 100 μL of TYR, and 1.0 mmol/L 100 μL of L-DOPA were added in a 96-well plate, and the absorbance at 475 nm was measured immediately after 10 s and recorded as A1. The reaction system was incubated for 190 s at 25 °C and measured again and recorded as A2. We repeated the above steps by replacing the ERJ with buffer and measuring the absorbance value after 10 s, recorded as A3, and the absorbance value after 190 s as A4. The inhibition rate of ERJ on TYR was calculated according to the following equation:(1) Inhibition percentage (%)=(1−ΔA/ΔB) × 100% where, ΔA = A2 − A1, ΔB = A4 − A3."}, "[3]": {"conditions": "ref [47]; cited from earlier work", "excerpt": "Guo isolated and purified 29 antioxidant peptides from RJ and verified their antioxidant activity."}, "[4]": {"tested_on": "fungus, yeast, and bacteria", "conditions": "ref [45],[46]; cited from earlier work"}},
  "note": "“Also recorded” adds a separate entry of the source. Ends that are not written are not given here.",
  "data": [
    {"molecule": "OC[C@H]1O[C@@H](Oc2ccc(O)cc2)[C@H](O)[C@@H](O)[C@@H]1O", "note": "[arbutin]", "values": [
      {"measurement": "inhibitory effect on TYR activity (in words), literature", "setting": "TYR [1]", "value": "strong inhibitory effects"}
    ]},
    {"molecule": "ILFTLL [ILFTLL]", "values": [
      {"measurement": "TYR inhibitory activity (in words)", "setting": "TYR [2]", "value": "lowest activity; also recorded: lowest of the three peptides"}
    ]},
    {"molecule": "Tyr-Tyr", "values": [
      {"measurement": "free radical scavenging ability", "setting": "[3]", "value": "strong free radical scavenging ability"}
    ]},
    {"molecule": "Oc1ccc(O)cc1", "note": "[hydroquinone]", "values": [
      {"measurement": "inhibitory effect on TYR activity (in words), literature", "setting": "TYR [1]", "value": "strong inhibitory effects"}
    ]},
    {"molecule": "Arg-Tyr", "values": [
      {"measurement": "free radical scavenging ability", "setting": "[3]", "value": "strong free radical scavenging ability"}
    ]},
    {"molecule": "IIPFIF [IIPFIF]", "values": [
      {"measurement": "TYR inhibitory activity (in words)", "setting": "TYR [2]", "value": "maximum activity; also recorded: highest of the three peptides"}
    ]},
    {"molecule": "MRJP-4: major royal jelly protein (protein, UniProt Q17061 16-464, looked up) Major royal jelly protein 4: QNIRGGVVRENSSGKNLTNTLNVIHKWKYLDYDFDNDERRQAAIQSGEYDRTKNYPLDVDQWHNKTFLAVIRYNGVPSSLNVVSDKTGNGGRLLQPYPDWSFAKYEDCSGIVSAHKIAIDEYERLWVLDSGLVNNTQPMCSPKLFAFDLNTSQLLKQVEIPHDVATTGKGELVSLTVQAMDSTNTMVYMVDNKNTLIIYQNADDSFHRLSSHTLNHNSDKMSDQQENLTLKEVDNKVYGMALSPVTHNLYYNSPSSENLYYVNTESLMKSENQGNDVQYERVQDVFDSQLTVKAVSKNGVLLFGLANNTLSCWNEHQSLDRQNIDVVARNEDTLQMVVSMKIKQNVPQSGRVNNTQRNEYLLALSDRNQNVLNNDLNLEHVNFQILGANVNDLIRNSRCANFDNQDNNHYNHNHNQARHSSKSDNQNNNQHNDQAHHSSKSNNRHNNND", "values": [
      {"measurement": "antibacterial properties", "setting": "[4]", "value": "have antibacterial properties"}
    ]},
    {"molecule": "MRJP-2: major royal jelly protein (protein, UniProt O77061 18-452, looked up) Major royal jelly protein 2: AIVRENSPRNLEKSLNVIHEWKYFDYDFGSEERRQAAIQSGEYDHTKNYPFDVDQWRDKTFVTILRYDGVPSTLNVISGKTGKGGRLLKPYPDWSFAEFKDCSKIVSAFKIAIDKFDRLWVLDSGLVNRTVPVCAPKLHVFDLKTSNHLKQIEIPHDIAVNATTGKGGLVSLAVQAIDLANTLVYMADHKGDALIVYQNADDSFHRLTSNTFDYDPRYAKMTIDGESFTLKNGICGMALSPVTNNLYYSPLASHGLYYVNTAPFMKSQFGENNVQYQGSEDILNTQSLAKAVSKNGVLFVGLVGNSAVGCWNEHQSLQRQNLEMVAQNDRTLQMIAGMKIKEELPHFVGSNKPVKDEYMLVLSNRMQKIVNDDFNFDDVNFRILGANVKELIRNTHCVNNNQNDNIQNTNNQNDNNQKNNKKNANNQKNNNQNDN", "values": [
      {"measurement": "antibacterial properties", "setting": "[4]", "value": "have antibacterial properties"}
    ]}
  ]
}
